Reference: US10493398B2, “Cyclic amine for selectively removing hydrogen sulphide” (BASF SE, priority 2015, dated 2019)
Where two headings read alike, the source gives them in different places.

Assay: pKA values by half-equivalence method
Format: physicochemical
Conditions: for pKa: amine in water, half neutralized with hydrochloric acid; for pKa decrease from 20 °C to 120 °C (pKa at 20 °C − pKa at 120 °C): difference between 20° C. and 120° C.
Method: The pKA values are suitably measured in aqueous solution with an amine concentration of 0.01 to 0.05 mol/kg at the specified temperature by determining the pH at the half-equivalence point, as shown, for example, by the working examples.
The pKA values of various amines were determined by means of the half-equivalence method. For this purpose, the amines were dissolved in water with a concentration of […] and partly neutralized with half the molar amount of hydrochloric acid (0.005 to 0.025 mol/L). The mass of the amine solutions was 250 g. […] The measurements were conducted at 20 and 120° C. The pH electrode used was the “Hamilton Polylite Plus 120” model, which is calibrated with pH 7 and pH 12 buffer solutions. The measurement was effected in a thermostated closed jacketed vessel with nitrogen blanketing.

[1] = 20° C., read-out: pKA at 20° C.
[2] = 120° C., read-out: pKA at 120° C.

| pKa [1] | pKa [2] | pKa decrease from 20 °C to 120 °C (pKa at 20 °C − pKa at 120 °C) | SMILES |
| --- | --- | --- | --- |
| 10.7 | 8.1 | 2.6 | CN(C)C1CC(C)(C)NC(C)(C)C1 [DATP, 4-dimethylamino-2,2,6,6-tetramethylpiperidine] |
| 10.2 | 7.6 | 2.6 | CC1(C)CC(O)CC(C)(C)N1 [TAAol, 4-hydroxy-2,2,6,6-tetramethylpiperidine] |
